US20160015064A1, “COMPOUNDS, COMPOSITIONS, AND METHODS FOR MODULATING SWEET TASTE” (CHROMOCELL CORPORATION, priority 2013, published 2016)

Columns and labels:
[1] = system: perception of the sweet taste of an aqueous solution of sweetener; assay: Two-alternative forced choice sip and spit method (2AFC); assay type: in vivo, humans
Protocol: The effect of the test compounds on the perception of the sweet taste of an aqueous solution of sweetener in humans was evaluated using a two-alternative forced choice “sip and spit” method (2AFC).
The aqueous sweetener solutions were prepared by adding, fructose, sucrose or glucose (by weight), to water to achieve the desired concentration.
Compounds were first prepared as a 500-fold concentrated stock solution in 100% ethanol. These concentrated stocks were then added to the aqueous sweetener solutions to result in a final ethanol concentration of 0.2%. The control (positive and negative) samples were also normalized to 0.2% ethanol. This level of ethanol was not seen to contribute any perceived sweetness.
The 2AFC test used for compound evaluation was a blind and randomized test where taste panelists (n=15) evaluate a pair of sweetener solutions at a time—one sample contains aqueous sweetener solution plus compound (i.e. test) while the other contains aqueous sweetener solution at higher concentration without compound (i.e. positive control). Each test sample was compared against a positive control. For example, if the test sample contained 1× sweetener concentration with compound (e.g. 5% sucrose with compound), the positive control sample contained a 1.1× sweetener concentration (e.g. 5.5% sucrose without compound).
Panelists were instructed not to eat or drink (except water) for at least 1 h before the test. During the test, panelists were instructed to sip each sample, swirl it around their mouth and then expectorate. After tasting each sample in the pair, panelists were instructed to record the sample that is “sweeter” in taste. Panelists cleansed their palates by rinsing with water, eating a cracker and waiting for an interval of about 5 minutes. Each pair was tasted twice. All samples were tasted at ambient temperatures. Data were analyzed using binomial probabilities.
Approximate levels of sweetness enhancement in column 5 of Table 2 were calculated as follows:
Approximate levels of sweetness enhancement=Sweetener concentration of positive control surpassed by the test sample, divided by sweetener concentration for compound-containing sample (e.g. 1.15×=5.75% sucrose/5% sucrose).

[2] = system: perception of sweet taste, in an aqueous solution; assay: Inherent sweetness assessment, difference from control sip and spit method; assay type: in vivo, humans; details: no sweetener
Protocol: The aqueous sucrose solutions were prepared by adding, sucrose (by weight), to water to achieve the desired concentration.
Compounds were first prepared as a 500-fold concentrated stock solution in 100% ethanol. These concentrated stocks were then added to water to result in a final ethanol concentration of 0.2%. The control (including positive control) samples were also normalized to 0.2% ethanol. This level of ethanol was not seen to contribute any perceived sweetness.
The intrinsic effect of test compounds on the perception of sweet taste, in an aqueous solution, in humans was evaluated using a difference from control “sip and spit” method employing a verbal category scale.
In this method, panelists (n=12) evaluate one pair of samples at a time—one sample contains water plus compound (i.e. test) while the other contains water without compound (i.e. control). Panelists were instructed to first taste the un-blinded control followed by the test sample and asked to rate the size of sweetness difference between the test and control sample, using a 6 point verbal category scale:
Verbal category scale • No difference • Slight difference • Slight/moderate difference • Moderate difference • Moderate/large difference • Very large difference
4 blinded controls comprising of one negative control (0% sucrose) and 3 positive control samples (0.5% sucrose, 1% sucrose and 2% sucrose) were also included as part of the test to evaluate the ability of panelists to rank the difference in sweetness perception between 0.5% sucrose, 1% sucrose and 2% sucrose compared to 0% sucrose control.
Panelists were instructed not to eat or drink (except water) for at least 1 h before the test. During the test, panelists were instructed to sip each sample, swirl it around their mouth and then expectorate. Panelists cleansed their palates by rinsing with water, eating a cracker and waiting for an interval of about 5 minutes. All samples were tasted at ambient temperatures.
The verbal category response for each test sample was converted into an integer numerical value, from 1 to 6 (e.g. no difference=1 and very large difference=6). Total numbers of panelist responses per integer value were plotted as a histogram. An assessment was then made, comparing mean, mode of the numerical value, and the distribution of the histogram plots, for test samples as compared to that of the positive (0.5% sucrose, 1% sucrose and 2% sucrose) and negative control (0% sucrose) sample. Inherent sweetness levels are then correlated to the positive controls as discrete bins: • Bin 1: 0% sucrose • Bin 2: >0% sucrose—<0.5% sucrose • Bin 3: 0.5% sucrose • Bin 4: >0.5% sucrose—<1% sucrose • Bin 5: 1% sucrose • Bin 6: >1% sucrose—<2% sucrose • Bin 7: 2% sucrose

[3] = test sample 4% fructose, compound 25 ppm with positive 2AFC

Row | Compound | Fold increase in perceived sweetness [1, 3] [X] | Fold increase in perceived sweetness ([1]; test sample 5% sucrose, compound 15, 25 ppm with positive 2AFC) [X] | Fold increase in perceived sweetness ([1]; test sample 6.5% glucose, compound 10, 20, 25 ppm with positive 2AFC) [X] | Correlated Inherent Sweetness Assessment ([2]; compound 10 ppm in water) | Correlated Inherent Sweetness Assessment ([2]; compound 15 ppm in water) [% sucrose] | Fold increase in perceived sweetness ([1]; test sample 5% sucrose, compound 15 ppm with positive 2AFC, positive control surpassed / test sweetener concentration) [X] | Fold increase in perceived sweetness ([1]; test sample 6.5% glucose, compound 25 ppm with positive 2AFC) [X]
1 | COc1ccc(C2CC(=O)c3c(O)cccc3O2)cc1O (single isomer, unassigned) [Compound 2, 5-hydroxy-2-(3-hydroxy-4-methoxyphenyl)chroman-4-one] | >1.20 | >1.20 | >1.15 | 0.5%-1% sucrose | 1 | – | –
2 | COc1ccc(C2CC(=O)c3c(O)cccc3O2)cc1O (single isomer, unassigned) [Compound 3, 5-hydroxy-2-(3-hydroxy-4-methoxyphenyl)chroman-4-one] | >1.25 | – | – | 0.5%-1% sucrose | 1 | >1.20 | >1.20
